Among the data in PMC8799717, “Pharmacological targeting PIKfyve and tubulin as an effective treatment strategy for double-hit lymphoma” (Cell Death Discovery, 2022) are remaining binding values, retold here.

Among the targets are CSF1R-autoinhibited (Homo sapiens, UniProt P07333); MAP4K5 (Homo sapiens, UniProt Q9Y4K4); EPHA3 (Homo sapiens, UniProt P29320); GRK3 (Homo sapiens, UniProt P35626); PRKCI (Homo sapiens, UniProt P41743); NEK10 (Homo sapiens, UniProt Q6ZWH5); ERBB3 (Homo sapiens, UniProt P21860); FGFR3 (Homo sapiens, UniProt P22607); VRK2 (Homo sapiens, UniProt Q86Y07); TSSK1B (Homo sapiens, UniProt Q9BXA7); KIT(V559D) (Homo sapiens, UniProt P10721, V559D); ITK (Homo sapiens, UniProt Q08881); MAP4K4 (Homo sapiens, UniProt O95819); WNK2 (Homo sapiens, UniProt Q9Y3S1); NEK6 (Homo sapiens, UniProt Q9HC98).

Common to all, as to assay: biochemical
Holding throughout (set-up): KINOMEscan active-site-directed competition binding panel, 468 kinases, percent of DMSO control at 1 uM
What all share (settings): KINOMEscan binding, percent of DMSO control; read-out: Ctrl%

In a further assay the target is T1, OSR1 (Homo sapiens, UniProt O95747).
T1 construct: gene OXSR1

In the next assay the target is T2, MRCKA (Homo sapiens, UniProt Q5VT25).
T2 construct: gene CDC42BPA

A further assay deals with T3, YSK1 (Homo sapiens, UniProt O00506).
T3 construct: gene STK25

The next assay deals with T4, PRKR (Homo sapiens, UniProt P19525).
T4 construct: gene EIF2AK2

Assay [1] addresses T5, RPS6KA4(Kin.Dom.2-C-terminal) (Homo sapiens, UniProt O75676).
T5 construct: Kin.Dom.2-C-terminal

The target of another assay is T6, PFTAIRE2 (Homo sapiens, UniProt Q96Q40).
T6 construct: gene CDK15

The target of another assay is T7, ERK3 (Homo sapiens, UniProt Q16659).
T7 construct: gene MAPK6

The target in assay [2] is EGFR(L747-S752del, P753S) (Homo sapiens, UniProt P00533, DEL747-752/P753S).
Assay [3] has as its target T8, TYK2(JH2domain-pseudokinase) (Homo sapiens, UniProt P29597).
T8 construct: JH2domain-pseudokinase

T3 sequence (O00506 whole entry): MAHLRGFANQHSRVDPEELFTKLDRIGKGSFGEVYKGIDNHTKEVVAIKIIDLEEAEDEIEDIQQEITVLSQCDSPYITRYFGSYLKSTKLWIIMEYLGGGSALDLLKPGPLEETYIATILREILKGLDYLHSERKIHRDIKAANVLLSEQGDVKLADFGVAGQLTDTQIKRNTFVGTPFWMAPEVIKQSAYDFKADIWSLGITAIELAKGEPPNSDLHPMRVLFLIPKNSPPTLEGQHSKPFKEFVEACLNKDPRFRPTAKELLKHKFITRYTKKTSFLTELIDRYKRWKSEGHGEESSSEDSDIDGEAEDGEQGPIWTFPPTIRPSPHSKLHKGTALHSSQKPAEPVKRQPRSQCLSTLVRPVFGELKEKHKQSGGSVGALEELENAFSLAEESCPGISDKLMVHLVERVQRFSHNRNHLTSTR
Chain of ITK (Q08881 whole entry): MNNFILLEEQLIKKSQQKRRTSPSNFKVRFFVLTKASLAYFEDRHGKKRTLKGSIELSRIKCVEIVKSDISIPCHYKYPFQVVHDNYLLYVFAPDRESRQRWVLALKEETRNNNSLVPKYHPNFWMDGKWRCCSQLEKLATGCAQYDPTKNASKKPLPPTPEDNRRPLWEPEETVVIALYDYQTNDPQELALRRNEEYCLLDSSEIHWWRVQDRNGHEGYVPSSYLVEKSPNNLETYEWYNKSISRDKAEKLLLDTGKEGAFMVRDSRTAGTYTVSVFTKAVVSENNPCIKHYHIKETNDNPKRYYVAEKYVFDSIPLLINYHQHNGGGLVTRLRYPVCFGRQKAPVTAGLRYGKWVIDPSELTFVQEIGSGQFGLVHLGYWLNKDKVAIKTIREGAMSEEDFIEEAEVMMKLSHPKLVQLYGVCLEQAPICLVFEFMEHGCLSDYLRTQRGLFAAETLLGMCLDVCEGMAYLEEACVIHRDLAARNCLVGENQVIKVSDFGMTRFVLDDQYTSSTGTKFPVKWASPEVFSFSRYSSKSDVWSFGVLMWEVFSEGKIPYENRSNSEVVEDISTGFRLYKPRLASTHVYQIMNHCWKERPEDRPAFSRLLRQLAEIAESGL
Chain of FGFR3 (P22607 whole entry): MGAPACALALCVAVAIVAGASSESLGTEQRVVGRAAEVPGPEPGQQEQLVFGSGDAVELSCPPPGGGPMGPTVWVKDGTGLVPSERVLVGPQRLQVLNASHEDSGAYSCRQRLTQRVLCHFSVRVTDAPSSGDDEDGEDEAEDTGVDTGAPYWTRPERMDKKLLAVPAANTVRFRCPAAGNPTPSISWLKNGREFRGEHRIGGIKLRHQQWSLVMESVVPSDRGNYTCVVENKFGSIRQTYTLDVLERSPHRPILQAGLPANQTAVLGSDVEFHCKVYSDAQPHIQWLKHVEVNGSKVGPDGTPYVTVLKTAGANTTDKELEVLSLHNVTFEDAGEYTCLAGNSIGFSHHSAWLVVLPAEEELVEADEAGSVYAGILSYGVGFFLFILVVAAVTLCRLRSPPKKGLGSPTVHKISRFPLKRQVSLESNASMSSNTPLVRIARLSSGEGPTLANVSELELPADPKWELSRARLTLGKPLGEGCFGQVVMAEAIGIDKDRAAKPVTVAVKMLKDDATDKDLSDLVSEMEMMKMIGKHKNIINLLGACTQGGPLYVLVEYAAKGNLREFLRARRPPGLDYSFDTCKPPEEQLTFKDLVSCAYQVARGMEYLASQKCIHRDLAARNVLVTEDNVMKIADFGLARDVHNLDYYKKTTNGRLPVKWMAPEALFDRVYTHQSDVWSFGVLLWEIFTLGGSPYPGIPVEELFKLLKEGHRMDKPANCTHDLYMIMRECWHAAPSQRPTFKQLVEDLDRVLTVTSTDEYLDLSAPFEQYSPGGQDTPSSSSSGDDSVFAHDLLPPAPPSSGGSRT
Chain of GRK3 (P35626 whole entry): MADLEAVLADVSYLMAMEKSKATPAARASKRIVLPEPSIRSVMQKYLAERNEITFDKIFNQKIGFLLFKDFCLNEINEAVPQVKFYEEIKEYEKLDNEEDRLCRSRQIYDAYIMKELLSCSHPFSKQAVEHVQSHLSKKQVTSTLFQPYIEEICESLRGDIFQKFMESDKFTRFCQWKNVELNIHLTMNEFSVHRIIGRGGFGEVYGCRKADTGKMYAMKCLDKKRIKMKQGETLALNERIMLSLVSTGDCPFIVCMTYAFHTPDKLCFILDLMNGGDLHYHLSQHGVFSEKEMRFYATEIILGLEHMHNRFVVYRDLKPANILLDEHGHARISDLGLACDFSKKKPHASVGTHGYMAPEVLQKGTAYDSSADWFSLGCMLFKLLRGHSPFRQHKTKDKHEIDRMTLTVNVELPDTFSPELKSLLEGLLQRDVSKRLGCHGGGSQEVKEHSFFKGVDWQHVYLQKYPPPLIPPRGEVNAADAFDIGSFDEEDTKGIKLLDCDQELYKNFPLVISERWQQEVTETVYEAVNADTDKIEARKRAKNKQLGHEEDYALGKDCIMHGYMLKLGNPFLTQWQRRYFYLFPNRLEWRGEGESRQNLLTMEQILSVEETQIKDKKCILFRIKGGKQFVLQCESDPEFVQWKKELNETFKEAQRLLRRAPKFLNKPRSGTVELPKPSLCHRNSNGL
T4 sequence (P19525 whole entry): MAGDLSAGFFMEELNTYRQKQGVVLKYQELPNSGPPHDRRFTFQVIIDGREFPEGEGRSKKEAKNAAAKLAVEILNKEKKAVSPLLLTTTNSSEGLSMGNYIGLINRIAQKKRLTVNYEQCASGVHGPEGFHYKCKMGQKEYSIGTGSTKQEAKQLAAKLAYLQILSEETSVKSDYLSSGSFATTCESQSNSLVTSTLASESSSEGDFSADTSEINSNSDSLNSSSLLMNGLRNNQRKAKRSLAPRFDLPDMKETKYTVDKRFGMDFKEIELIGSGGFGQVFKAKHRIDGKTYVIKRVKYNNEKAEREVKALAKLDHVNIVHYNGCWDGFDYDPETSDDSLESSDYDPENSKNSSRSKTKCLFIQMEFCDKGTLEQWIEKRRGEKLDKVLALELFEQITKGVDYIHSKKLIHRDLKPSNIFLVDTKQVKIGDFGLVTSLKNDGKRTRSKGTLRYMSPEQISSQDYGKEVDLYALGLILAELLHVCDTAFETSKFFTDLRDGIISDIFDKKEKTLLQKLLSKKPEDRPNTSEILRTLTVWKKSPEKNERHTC
Chain of CSF1R-autoinhibited (P07333 whole entry): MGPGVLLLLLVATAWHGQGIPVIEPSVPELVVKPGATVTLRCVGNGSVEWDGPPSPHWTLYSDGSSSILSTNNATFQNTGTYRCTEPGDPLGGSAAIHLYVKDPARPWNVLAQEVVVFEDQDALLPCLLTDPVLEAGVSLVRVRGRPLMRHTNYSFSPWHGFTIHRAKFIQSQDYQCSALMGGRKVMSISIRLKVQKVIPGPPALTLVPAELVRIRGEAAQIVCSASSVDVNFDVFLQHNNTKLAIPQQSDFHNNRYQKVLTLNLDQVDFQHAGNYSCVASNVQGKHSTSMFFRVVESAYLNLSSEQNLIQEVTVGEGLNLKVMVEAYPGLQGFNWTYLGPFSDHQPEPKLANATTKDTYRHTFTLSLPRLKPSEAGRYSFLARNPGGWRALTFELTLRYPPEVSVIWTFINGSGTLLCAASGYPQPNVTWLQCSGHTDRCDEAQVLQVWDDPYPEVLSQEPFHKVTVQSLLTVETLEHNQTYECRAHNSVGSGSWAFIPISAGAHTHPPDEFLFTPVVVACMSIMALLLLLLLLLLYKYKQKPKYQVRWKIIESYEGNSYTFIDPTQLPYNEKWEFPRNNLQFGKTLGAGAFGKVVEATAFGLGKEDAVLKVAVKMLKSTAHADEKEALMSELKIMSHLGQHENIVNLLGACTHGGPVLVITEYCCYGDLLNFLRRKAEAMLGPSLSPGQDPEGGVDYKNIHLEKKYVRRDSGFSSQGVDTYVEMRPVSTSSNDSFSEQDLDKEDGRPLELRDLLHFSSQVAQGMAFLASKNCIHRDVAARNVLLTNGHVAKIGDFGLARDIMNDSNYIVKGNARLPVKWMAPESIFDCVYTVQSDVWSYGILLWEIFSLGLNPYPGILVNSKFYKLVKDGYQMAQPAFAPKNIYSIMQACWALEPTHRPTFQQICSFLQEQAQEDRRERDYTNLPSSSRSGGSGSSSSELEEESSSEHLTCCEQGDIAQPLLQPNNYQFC
T1 sequence (O95747 whole entry): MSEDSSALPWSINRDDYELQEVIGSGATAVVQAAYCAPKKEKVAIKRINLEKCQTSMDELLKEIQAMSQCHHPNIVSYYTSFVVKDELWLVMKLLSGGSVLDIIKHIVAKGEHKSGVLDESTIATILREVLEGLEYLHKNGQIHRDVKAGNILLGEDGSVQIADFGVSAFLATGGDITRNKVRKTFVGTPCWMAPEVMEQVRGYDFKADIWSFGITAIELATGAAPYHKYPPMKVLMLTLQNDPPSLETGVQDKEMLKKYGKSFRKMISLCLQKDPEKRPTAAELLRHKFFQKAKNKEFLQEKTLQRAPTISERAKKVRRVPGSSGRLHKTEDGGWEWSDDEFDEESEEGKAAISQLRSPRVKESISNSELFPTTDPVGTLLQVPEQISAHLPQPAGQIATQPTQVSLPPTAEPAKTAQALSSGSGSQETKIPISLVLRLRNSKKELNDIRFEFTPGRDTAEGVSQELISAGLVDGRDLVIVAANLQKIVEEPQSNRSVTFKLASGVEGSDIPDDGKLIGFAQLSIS
Chain of NEK6 (Q9HC98 whole entry): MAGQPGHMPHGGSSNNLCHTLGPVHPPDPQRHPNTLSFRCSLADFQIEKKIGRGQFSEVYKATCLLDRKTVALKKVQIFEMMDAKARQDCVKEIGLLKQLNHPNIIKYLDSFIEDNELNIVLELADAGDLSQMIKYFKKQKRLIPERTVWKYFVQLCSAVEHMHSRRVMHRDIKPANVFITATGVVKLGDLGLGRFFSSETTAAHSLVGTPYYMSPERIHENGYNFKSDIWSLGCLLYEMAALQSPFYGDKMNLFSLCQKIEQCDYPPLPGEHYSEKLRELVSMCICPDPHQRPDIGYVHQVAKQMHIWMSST

As for `Cc1ccc(NC(=O)c2cccc(C(F)(F)F)c2)cc1Nc1cc(-c2cccnc2)nc2[nH]ccc12` [HZX-02-059], the remaining binding at 1 µM on OSR1 is 97%; at MRCKA, 88%; on CSF1R-autoinhibited it was 93%; at MAP4K5, 73%; at EPHA3 it was 27%; at GRK3, 98%. The remaining binding at 1 µM was 71% at PRKCI; 100% at NEK10; 100% on ERBB3; 86% on FGFR3; 100% on VRK2; 94% at YSK1. In addition, the remaining binding at 1 µM at TSSK1B is 100%; on KIT(V559D) it was 0.9%; at PRKR it was 95%; on ITK, 100%; at MAP4K4 it was 89%; in assay [1], 97%. Besides, the remaining binding at 1 µM at PFTAIRE2 came out at 81%; on WNK2, 100%; on ERK3 it was 100%; at NEK6, 98%; in [2], 80%; in assay [3], 92%.
